From US11000033B2, “Ketone or oxime compound, and herbicide” (NISSAN CHEMICAL CORPORATION, priority 2014, dated 2021)

Key:
Assay type in all cases: in vivo
Lolium multiflorum Lam. [1] = assay: Test Example 4: herbicidal effect by soil treatment (symbol K); settings: application herbicide amount 320 g/ha
Procedure, shortened: (§1)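 Seeds were sown in sterilized diluvial soil, covered with about 1.5 cm of soil, and the soil surface was sprayed with a water-diluted emulsion of the compound at a predetermined rate. Plants grew in a greenhouse at 25° C. to 30° C.; effects were scored visually 3 weeks after application.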

Lolium multiflorum Lam. [2] = assay: Test Example 5: herbicidal effect by foliage application, plastic box (symbol K); settings: 320 g/ha, 3 weeks after application
Procedure, shortened: (§2)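 Emulsion formulation, diluted with water to the intended rate, was applied uniformly to leaves by small sprayer. Recipients were 14-day greenhouse-grown seedlings (25° C. to 30° C.). Assessment followed at 3 weeks.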

wheat [3] = assay: Test Example 4: effect on crop by soil treatment (symbol e); settings: application herbicide amount 320 g/ha
Procedure, shortened: (§3)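 Soil-treatment setup: crop and weed seeds were spot-sown into sterilized diluvial soil, then buried beneath approximately 1.5 cm of it, and the boxes were housed in a 25–30° C. greenhouse.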

beet = assay: Test Example 4: effect on crop by soil treatment (symbol f); settings: application herbicide amount 320 g/ha
Procedure, shortened: as §3

wheat [4] = assay: Test Example 5: effect on crop by foliage application, plastic box (symbol e); settings: 320 g/ha, 3 weeks after application
Procedure, shortened: (§4)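 Plants were raised from seed in a greenhouse (25° C. to 30° C.) after sowing in a plastic box of sterilized diluvial soil.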

[5] = tested on: directly sowed rice plant; assay: Test Example 3: effect on crop by foliage application, Wagner pot (symbol b); settings: application herbicide amount 320 g/ha
Procedure, shortened: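 Steps: fill a 1/10000-are Wagner pot with alluvial soil; add water and mix to submerge at 0.1–0.5 cm depth; sow rice plus Echinochloa crus-galli var. crus-galli, Leptochloa chinensis and Cyperus difformis; grow in a 25–30 °C greenhouse.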

Digitaria ciliaris = assay: Test Example 4: herbicidal effect by soil treatment (symbol F); settings: application herbicide amount 320 g/ha
Procedure, shortened: as §1

rice = assay: Test Example 4: effect on crop by soil treatment (symbol b); settings: application herbicide amount 320 g/ha
Procedure, shortened: as §3

rice plant = assay: Test Example 5: effect on crop by foliage application, plastic box (symbol b); settings: 320 g/ha, 3 weeks after application
Procedure, shortened: as §4

Alopecurus myosuroides [6] = assay: Test Example 5: herbicidal effect by foliage application, plastic box (symbol J); settings: 320 g/ha, 3 weeks after application
Procedure, shortened: as §2

[7] = tested on: Echinochloa oryzacola Vasing.; assay: Test Example 2: herbicidal activity, application during weed generation in submerged conditions (symbol A); settings: Table 23; application herbicide amount 320 g/ha; grade 0-5 by criteria of Test Example 1
Procedure, shortened: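 Treatment timing was the one- to two-leaf stage, with diluted emulsifiable compound dropped onto the paddy water (depth 4 cm) over alluvial soil. All three species grew from a mixed sowing in a 25° C. to 30° C. greenhouse. Injury was judged by eye 3 weeks on.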

Stellaria media = assay: Test Example 4: herbicidal effect by soil treatment (symbol P); settings: application herbicide amount 320 g/ha
Procedure, shortened: as §1

rapeseed = assay: Test Example 4: effect on crop by soil treatment (symbol g); settings: application herbicide amount 320 g/ha
Procedure, shortened: as §3

Alopecurus myosuroides [8] = assay: Test Example 4: herbicidal effect by soil treatment (symbol J); settings: application herbicide amount 320 g/ha
Procedure, shortened: as §1

corn = assay: Test Example 4: effect on crop by soil treatment (symbol c); settings: application herbicide amount 320 g/ha
Procedure, shortened: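 Crop seed is sown in spots together with several weed species in a box of sterilized diluvial soil. It is covered by about 1.5 cm of soil and kept in a greenhouse held between 25° C. and 30° C.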

| Structure (SMILES) | K: Lolium multiflorum Lam., herbicidal effect grade (Lolium multiflorum Lam. [1]) | K: Lolium multiflorum Lam., herbicidal effect (criteria of Test Example 1) (Lolium multiflorum Lam. [2]) | e: wheat, effect on crop grade (wheat [3]) | f: beet, effect on crop grade (beet) | e: wheat, effect on crop (criteria of Test Example 1) (wheat [4]) | effect on crop b (directly sowed rice plant), grade 0-5 [5] | F: Digitaria ciliaris, herbicidal effect grade (Digitaria ciliaris) | b: directly sowed rice plant, effect on crop grade (rice) | b: directly sowed rice plant, effect on crop (criteria of Test Example 1) (rice plant) | J: Alopecurus myosuroides, herbicidal effect (criteria of Test Example 1) (Alopecurus myosuroides [6]) | Herbicidal effect grade, A: Echinochloa oryzacola Vasing. [7] | P: Stellaria media, herbicidal effect grade (Stellaria media) | g: rapeseed, effect on crop grade (rapeseed) | J: Alopecurus myosuroides, herbicidal effect grade (Alopecurus myosuroides [8]) | c: corn, effect on crop grade (corn) | Herbicidal effect grade, K: Lolium multiflorum Lam. (Lolium multiflorum Lam. [1]) | Effect on crop grade, e: wheat (wheat [3]) | Effect on crop grade, f: beet (beet) | Herbicidal effect grade, F: Digitaria ciliaris (Digitaria ciliaris) | Effect on crop grade, b: directly sowed rice plant (rice) | further results |
| --- | --- | --- | --- | --- | --- | --- | --- | --- | --- | --- | --- | --- | --- | --- | --- | --- | --- | --- | --- | --- | --- |
| CON=C(C)CC1CC(O)=C(c2c(C)cc(Br)cc2OC)C1=O (stereo not drawn) [6-076, 2-(4-bromo-2-methoxy-6-methylphenyl)-3-hydroxy-5-{2-(methoxyimino)propyl}cyclopent-2-enone] | 5 (Herbicidal ratio of 90% or more (almost completely withered)) | 5 (Herbicidal ratio of 90% or more (almost completely withered)) | 0 (Herbicidal ratio of 5% or lower (almost no effect)) | 0 (Herbicidal ratio of 5% or lower (almost no effect)) | 5 (Herbicidal ratio of 90% or more (almost completely withered)) | 5 (Herbicidal ratio of 90% or more (almost completely withered)) | 5 (Herbicidal ratio of 90% or more (almost completely withered)) | 5 (Herbicidal ratio of 90% or more (almost completely withered)) | 5 (Herbicidal ratio of 90% or more (almost completely withered)) | 5 (Herbicidal ratio of 90% or more (almost completely withered)) | 5 (Herbicidal ratio of 90% or more (almost completely withered)) | 0 (Herbicidal ratio of 5% or lower (almost no effect)) | 2 (Herbicidal ratio of 20% or higher and lower than 40%) | 0 (Herbicidal ratio of 5% or lower (almost no effect)) | 5 (Herbicidal ratio of 90% or more (almost completely withered)) |  |  |  |  |  |  |
| CON=C(C)CC1CC(OC(=O)N(C)C)=C(c2c(C)cc(-c3ccc(Cl)cc3)cc2C)C1=O (mixture of isomers) [6-063] | 0 (Herbicidal ratio of 5% or lower (almost no effect)) | 5 (Herbicidal ratio of 90% or more (almost completely withered)) | 0 (Herbicidal ratio of 5% or lower (almost no effect)) | 0 (Herbicidal ratio of 5% or lower (almost no effect)) | 4 (Herbicidal ratio of 70% or higher and lower than 90%) | 5 (Herbicidal ratio of 90% or more (almost completely withered)) | 5 (Herbicidal ratio of 90% or more (almost completely withered)) | 0 (Herbicidal ratio of 5% or lower (almost no effect)) | 3 (Herbicidal ratio of 40% or higher and lower than 70%) | 3 (Herbicidal ratio of 40% or higher and lower than 70%) | 2 (Herbicidal ratio of 20% or higher and lower than 40%) | 0 (Herbicidal ratio of 5% or lower (almost no effect)) | 0 (Herbicidal ratio of 5% or lower (almost no effect)) | 0 (Herbicidal ratio of 5% or lower (almost no effect)) | 0 (Herbicidal ratio of 5% or lower (almost no effect)) |  |  |  |  |  |  |
| CON=C(C)CC1CC(O)=C(c2c(C)cc(OC)cc2C)C1=O (stereo not drawn) [6-055] | 5 (Herbicidal ratio of 90% or more (almost completely withered)) | 5 (Herbicidal ratio of 90% or more (almost completely withered)) | 0 (Herbicidal ratio of 5% or lower (almost no effect)) | 0 (Herbicidal ratio of 5% or lower (almost no effect)) | 3 (Herbicidal ratio of 40% or higher and lower than 70%) | 5 (Herbicidal ratio of 90% or more (almost completely withered)) | 5 (Herbicidal ratio of 90% or more (almost completely withered)) | 5 (Herbicidal ratio of 90% or more (almost completely withered)) | 5 (Herbicidal ratio of 90% or more (almost completely withered)) | 5 (Herbicidal ratio of 90% or more (almost completely withered)) | 5 (Herbicidal ratio of 90% or more (almost completely withered)) | 0 (Herbicidal ratio of 5% or lower (almost no effect)) | 0 (Herbicidal ratio of 5% or lower (almost no effect)) | 4 (Herbicidal ratio of 70% or higher and lower than 90%) | 5 (Herbicidal ratio of 90% or more (almost completely withered)) |  |  |  |  |  |  |
| CON=C(C)CC1CC(O)=C(c2c(F)cc(-c3ccccc3)cc2OC)C1=O (stereo not drawn) [6-107] |  | 5 (Herbicidal ratio of 90% or more (almost completely withered)) |  |  | 5 (Herbicidal ratio of 90% or more (almost completely withered)) | 5 (Herbicidal ratio of 90% or more (almost completely withered)) |  |  | 5 (Herbicidal ratio of 90% or more (almost completely withered)) | 5 (Herbicidal ratio of 90% or more (almost completely withered)) | 5 (Herbicidal ratio of 90% or more (almost completely withered)) |  |  |  |  | 1 (Herbicidal ratio of 5% or higher and lower than 20%) | 4 (Herbicidal ratio of 70% or higher and lower than 90%) | 1 (Herbicidal ratio of 5% or higher and lower than 20%) | 5 (Herbicidal ratio of 90% or more (almost completely withered)) | 5 (Herbicidal ratio of 90% or more (almost completely withered)) | Herbicidal effect grade, P: Stellaria media (Stellaria media): 2 (Herbicidal ratio of 20% or higher and lower than 40%); Effect on crop grade, g: rapeseed (rapeseed): 4 (Herbicidal ratio of 70% or higher and lower than 90%); Herbicidal effect grade, J: Alopecurus myosuroides (Alopecurus myosuroides [8]): 5 (Herbicidal ratio of 90% or more (almost completely withered)); Effect on crop grade, c: corn (corn): 0 (Herbicidal ratio of 5% or lower (almost no effect)) |
| CC#Cc1cc(C)c(C2=C(O)CC(CC(C)=O)C2=O)c(C)c1 (stereo not drawn) [7-010] |  | 5 (Herbicidal ratio of 90% or more (almost completely withered)) |  |  | 5 (Herbicidal ratio of 90% or more (almost completely withered)) | 5 (Herbicidal ratio of 90% or more (almost completely withered)) |  |  | 5 (Herbicidal ratio of 90% or more (almost completely withered)) | 5 (Herbicidal ratio of 90% or more (almost completely withered)) | 5 (Herbicidal ratio of 90% or more (almost completely withered)) |  |  |  |  | 5 (Herbicidal ratio of 90% or more (almost completely withered)) | 4 (Herbicidal ratio of 70% or higher and lower than 90%) | 0 (Herbicidal ratio of 5% or lower (almost no effect)) | 5 (Herbicidal ratio of 90% or more (almost completely withered)) | 5 (Herbicidal ratio of 90% or more (almost completely withered)) | Herbicidal effect grade, P: Stellaria media (Stellaria media): 0 (Herbicidal ratio of 5% or lower (almost no effect)); Effect on crop grade, g: rapeseed (rapeseed): 3 (Herbicidal ratio of 40% or higher and lower than 70%); Herbicidal effect grade, J: Alopecurus myosuroides (Alopecurus myosuroides [8]): 5 (Herbicidal ratio of 90% or more (almost completely withered)); Effect on crop grade, c: corn (corn): 5 (Herbicidal ratio of 90% or more (almost completely withered)) |
